This is an account of results in patent US8648066B2 (Exelixis, Inc., priority 2009, dated 2014).

Molecules are shown by their SMILES. A value given as a limit tells only on which side of the number the result lay.

What is called IC50 is the concentration that inhibits the measured activity by half.

The assay concerns the target mTOR/GbL/Raptor (mTORC1) (Homo sapiens, UniProt P42345). The assay can be described thus: mTOR/GbL/Raptor (mTORC1) ELISA assay. The class given is biochemical. The conditions noted are these: phosphorylation of 4E-BP1; 0.2 nM mTORC1, 10 μM ATP; read-out: IC50 in this assay (mTORC1 ELISA). The gist of the method:
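ELISA read-out: phospho-4E-BP1 captured on Ni-chelate plates and detected with anti-phospho antibody plus HRP-anti-IgG luminescence. The kinase step ran 120 min at ambient temperature with 0.2 nM human mTORC1, 10 µM ATP, 50 nM His-4E-BP1, 10 mM MnCl2, pH 7.2 HEPES.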
For orientation: An ELISA detects its analyte on a solid surface through an enzyme-linked reagent.

On to `Cc1nc2ccc(-c3ccc4c(c3)CN(c3nc(CN5CC[C@H](F)C5)nc5c3CC(C)(C)CC5)CCO4)cc2[nH]1` [Example 463, 4-(2-{[(3S)-3-fluoropyrrolidin-1-yl]methyl}-6,6-dimethyl-5,6,7,8-tetrahydroquinazolin-4-yl)-7-(2-methyl-1H-benzimidazol-6-yl)-2,3,4,5-tetrahydro-1,4-benzoxazepine], for which the IC50 lay in the range of 50 to 250 nM. Turning to `Cc1nc2c(c(N3CCOc4ccc(-c5cnc(N)c(S(=O)(=O)N(C)C)c5)cc4C3)n1)CC(C)(C)CC2` [Example 417, 2-amino-N,N-dimethyl-5-[4-(2,6,6-trimethyl-5,6,7,8-tetrahydroquinazolin-4-yl)-2,3,4,5-tetrahydro-1,4-benzoxazepin-7-yl]pyridine-3-sulfonamide], the IC50 is 50 to 250 nM. As to `Cc1ncnc(N2CCOc3ccc(-c4ccc5[nH]c(NCCF)nc5c4)cc3C2)c1Cc1ccc(F)cc1` [Example 193, N-(2-fluoroethyl)-5-(4-{5-[(4-fluorophenyl)methyl]-6-methylpyrimidin-4-yl}-2,3,4,5-tetrahydro-1,4-benzoxazepin-7-yl)-1H-benzimidazol-2-amine], the IC50 is not above 10 nM. `CC1(C)CCc2ncnc(N3CCOc4ccc(-c5cnc(C(N)=O)c(N)c5)cc4C3)c2C1` [Example 457, 3-amino-5-[4-(6,6-dimethyl-5,6,7,8-tetrahydroquinazolin-4-yl)-2,3,4,5-tetrahydro-1,4-benzoxazepin-7-yl]pyridine-2-carboxamide]: the IC50 is 50 to 250 nM. As for `CC1(C)CCc2ncnc(N3CCOc4ccc(-c5cnc6nc(N)[nH]c6c5)cc4C3)c2C1` [Example 177, 6-[4-(6,6-dimethyl-5,6,7,8-tetrahydroquinazolin-4-yl)-2,3,4,5-tetrahydro-1,4-benzoxazepin-7-yl]-1H-imidazo[4,5-b]pyridin-2-amine], the IC50 was not above 10 nM. For `CC(=O)OCc1nc2c(c(N3CCOc4ccc(-c5cnc6nc(C)[nH]c6c5)cc4C3)n1)CC(C)(C)CC2` [Example 313, {6,6-dimethyl-4-[7-(2-methyl-1H-imidazo[4,5-b]pyridin-6-yl)-2,3-dihydro-1,4-benzoxazepin-4(5H)-yl]-5,6,7,8-tetrahydroquinazolin-2-yl}methyl acetate], the IC50 is not above 10 nM. On to `Cc1ncnc(N2CCOc3ccc(-c4ccc5nc(N)nn5c4)cc3C2)c1Cc1ccc(F)cc1` [Example 141, 6-(4-{5-[(4-fluorophenyl)methyl]-6-methylpyrimidin-4-yl}-2,3,4,5-tetrahydro-1,4-benzoxazepin-7-yl)[1,2,4]triazolo[1,5-a]pyridin-2-amine], for which the IC50 is 10 to 50 nM. In the case of `Cc1nc2ncc(-c3ccc4c(c3)CN(c3ncnc5c3CCC(C)C5)CCO4)cc2[nH]1` (stereo not drawn) [Example 556, 7-(2-methyl-1H-imidazo[4,5-b]pyridin-6-yl)-4-(7-methyl-5,6,7,8-tetrahydroquinazolin-4-yl)-2,3,4,5-tetrahydro-1,4-benzoxazepine], the IC50 fell in the range of 10 to 50 nM. The figure for `Cc1nc(N)nc(N2CCOc3ccc(-c4cnc5[nH]cnc5c4)cc3C2)c1Cc1ccc(F)cc1` [Example 689, 5-[(4-fluorophenyl)methyl]-4-[7-(3H-imidazo[4,5-b]pyridin-6-yl)-2,3-dihydro-1,4-benzoxazepin-4(5H)-yl]-6-methylpyrimidin-2-amine] is not above 10 nM; for `COc1ccc(-c2ccc3c(c2)CN(c2nc(CN(C)C)nc4c2CC(C)(C)CC4)CCO3)cc1OC(F)F` [Example 649, 1-{4-[7-{3-[(difluoromethyl)oxy]-4-(methyloxy)phenyl}-2,3-dihydro-1,4-benzoxazepin-4(5H)-yl]-6,6-dimethyl-5,6,7,8-tetrahydroquinazolin-2-yl}-N,N-dimethylmethanamine] it is 250 to 1000 nM; for `Cc1nc2cc(-c3ccc4c(c3)CN(c3nc(CF)nc5c3CC(C)(C)CC5)CCO4)ccc2[nH]1` [Example 676, 4-[2-(fluoromethyl)-6,6-dimethyl-5,6,7,8-tetrahydroquinazolin-4-yl]-7-(2-methyl-1H-benzimidazol-5-yl)-2,3,4,5-tetrahydro-1,4-benzoxazepine] it is not above 10 nM. Take `CC1(C)CCc2ncnc(N3CCOc4ccc(-c5ccc(-c6ncc[nH]6)cc5)cc4C3)c2C1` [Example 213, 4-(6,6-dimethyl-5,6,7,8-tetrahydroquinazolin-4-yl)-7-[4-(1H-imidazol-2-yl)phenyl]-2,3,4,5-tetrahydro-1,4-benzoxazepine]: the IC50 is not above 10 nM.

For `Cc1nc2ccc(-c3ccc4c(c3)CN(c3nc(CN(C)C)nc(C)c3C)CCO4)cc2[nH]1` [Example 672, 1-{4,5-dimethyl-6-[7-(2-methyl-1H-benzimidazol-6-yl)-2,3-dihydro-1,4-benzoxazepin-4(5H)-yl]pyrimidin-2-yl}-N,N-dimethylmethanamine], the IC50 is not below 2000 nM.

For the compound `CC1(C)CCc2ncnc(N3CCOc4ccc(-c5cnc6c(c5)S(=O)(=O)NC(=O)N6)cc4C3)c2C1` [Example 571, 7-[4-(6,6-dimethyl-5,6,7,8-tetrahydroquinazolin-4-yl)-2,3,4,5-tetrahydro-1,4-benzoxazepin-7-yl]-2H-pyrido[2,3-e][1,2,4]thiadiazin-3(4H)-one 1,1-dioxide], the IC50 was 50 to 250 nM.

Take `Cc1nc2ncc(-c3ccc4c(c3)CN(c3nc(CNS(C)(=O)=O)nc5c3CC(C)(C)CC5)CCO4)cc2[nH]1` [Example 601, N-({6,6-dimethyl-4-[7-(2-methyl-1H-imidazo[4,5-b]pyridin-6-yl)-2,3-dihydro-1,4-benzoxazepin-4(5H)-yl]-5,6,7,8-tetrahydroquinazolin-2-yl)methyl)methanesulfonamide]: the IC50 is not above 10 nM.

Take `Cc1nc(CN(C)C)nc(N2CCOc3ccc(-c4cnc5sc(N)nc5c4)cc3C2)c1C(C)C` [Example 674, 6-(4-{2-[(dimethylamino)methyl]-6-methyl-5-(1-methylethyl)pyrimidin-4-yl}-2,3,4,5-tetrahydro-1,4-benzoxazepin-7-yl)[1,3]thiazolo[5,4-b]pyridin-2-amine]: the IC50 lay within 10 to 50 nM.

On to `Cc1nc2ccc(-c3ccc4c(c3)CN(c3ncnc5c3CCC(C)(C)C5)CCO4)cc2[nH]1` [Example 95, 4-(7,7-dimethyl-5,6,7,8-tetrahydroquinazolin-4-yl)-7-(2-methyl-1H-benzimidazol-6-yl)-2,3,4,5-tetrahydro-1,4-benzoxazepine], for which the IC50 lay in the range of 10 to 50 nM. As to `Cc1nc2ncc(-c3ccc4c(c3)CN(c3nc(-c5ccccn5)nc5c3CC(C)(C)CC5)CCO4)cc2[nH]1` [Example 473, 4-(6,6-dimethyl-2-pyridin-2-yl-5,6,7,8-tetrahydroquinazolin-4-yl)-7-(2-methyl-1H-imidazo[4,5-b]pyridin-6-yl)-2,3,4,5-tetrahydro-1,4-benzoxazepine], the IC50 lay in the range of 10 to 50 nM.

Regarding `COc1ccc2c(N3CCOc4ccc(-c5cnc(N)s5)cc4C3)nc(C)nc2c1` [Example 292, 5-{4-[2-methyl-7-(methyloxy)quinazolin-4-yl]-2,3,4,5-tetrahydro-1,4-benzoxazepin-7-yl}-1,3-thiazol-2-amine], the IC50 is 50 to 250 nM.

On to `Cc1ncnc(N2CCOc3ccc(-c4ccc5nc(N)[nH]c5n4)cc3C2)c1Cc1ccc(F)cc1` [Example 194, 5-(4-{5-[(4-fluorophenyl)methyl]-6-methylpyrimidin-4-yl}-2,3,4,5-tetrahydro-1,4-benzoxazepin-7-yl)-3H-imidazo[4,5-b]pyridin-2-amine], for which the IC50 is 10 to 50 nM. The figure for `CC[C@H]1CCc2c(ncnc2N2CCOc3ccc(-c4cnc(N)c(S(=O)(=O)NCC(C)(C)N)c4)cc3C2)C1` [Example 407, 2-amino-N-(2-amino-2-methylpropyl)-5-{4-[(7S)-7-ethyl-5,6,7,8-tetrahydroquinazolin-4-yl]-2,3,4,5-tetrahydro-1,4-benzoxazepin-7-yl]pyridine-3-sulfonamide] is 10 to 50 nM; for `CC1=CC(C)(C)Cc2c1ncnc2N1CCOc2ccc(-c3cnc4nc(C)[nH]c4c3)cc2C1` [Example 554, 7-(2-methyl-1H-imidazo[4,5-b]pyridin-6-yl)-4-(6,6,8-trimethyl-5,6-dihydroquinazolin-4-yl)-2,3,4,5-tetrahydro-1,4-benzoxazepine] it is not above 10 nM; for `Cc1ncnc(N2CCOc3ccc(-c4cnc5nc(N)[nH]c5c4)cc3C2)c1Cc1ccc(F)cc1` [Example 176, 6-(4-{5-[(4-fluorophenyl)methyl]-6-methylpyrimidin-4-yl}-2,3,4,5-tetrahydro-1,4-benzoxazepin-7-yl)-1H-imidazo[4,5-b]pyridin-2-amine] it is not above 10 nM. On to `CCC1CCc2nc(C)nc(N3CCOc4ccc(-c5cnc6nc(C)[nH]c6c5)cc4C3)c2C1` (stereo not drawn) [Example 482, 4-(6-ethyl-2-methyl-5,6,7,8-tetrahydroquinazolin-4-yl)-7-(2-methyl-1H-imidazo[4,5-b]pyridin-6-yl)-2,3,4,5-tetrahydro-1,4-benzoxazepine], for which the IC50 was in the range of 10 to 50 nM. `CC1(C)CCc2ncnc(N3CCOc4ccc(-c5cnc(N)c(S(=O)(=O)N6CC(O)(CO)C6)c5)cc4C3)c2C1` [Example 314, 1-({2-amino-5-[4-(6,6-dimethyl-5,6,7,8-tetrahydroquinazolin-4-yl)-2,3,4,5-tetrahydro-1,4-benbzoxazepin-7-yl]pyridin-3-yl}sulfonyl)-3-(hydroxymethyl)azetidin-3-ol]: the IC50 was 10 to 50 nM.

Regarding `COc1ccc2c(N3CCOc4ccc(-c5cnc6[nH]ccc6c5)cc4C3)nc(C)nc2c1` [Example 267, 4-[2-methyl-7-(methyloxy)quinazolin-4-yl]-7-(1H-pyrrolo[2,3-b]pyridin-5-yl)-2,3,4,5-tetrahydro-1,4-benzoxazepine], the IC50 lay in the range of 250 to 1000 nM. Consider `CC1(C)CCc2ncnc(N3CCOc4ccc(-c5cnc(N)c(S(=O)(=O)N6C7CCC6CC(N)C7)c5)cc4C3)c2C1` (stereo not drawn) [Example 575, 8-({2-amino-5-[4-(6,6-dimethyl-5,6,7,8-tetrahydroquinazolin-4-yl)-2,3,4,5-tetrahydro-1,4-benzoxazepin-7-yl]pyridin-3-yl}sulfonyl)-8-azabicyclo[3.2.1]octan-3-amine], for which the IC50 was in the range of 10 to 50 nM.
